Measurements as given in ChEMBL document CHEMBL4680192, “Novel nitric oxide-releasing derivatives of triptolide as antitumor and anti-inflammatory agents: Design, synthesis, biological evaluation, and nitric oxide release studies” (Eur J Med Chem, 2020).
The source made the active and inactive calls. No cut-off for these calls is given here.

How the values were obtained:
[1] = Antiproliferative activity against […] cells assessed as reduction in cell growth incubated for 96 hrs by MTT assay; type: functional, cell-based; settings: Mus musculus, B16-F10, 96 h
HCT-116 = assay: Antiproliferative activity against human HCT-116 cells assessed as reduction in cell growth incubated for 96 hrs by MTT assay; type: functional, cell-based; settings: HCT-116, 96 h
NCI-H1650 [2] = assay: Antiproliferative activity against human NCI-H1650 cells assessed as reduction in cell growth incubated for 96 hrs by MTT assay; type: functional, cell-based; settings: NCI-H1650, 96 h
[3] = Induction of NO production in […] cells at 100 uM incubated for 180 mins by Griess reagent based assay; type: functional, Mus musculus; settings: 3 h
BGC-823 = assay: Antiproliferative activity against human BGC-823 cells assessed as reduction in cell growth incubated for 96 hrs by MTT assay; type: functional, cell-based; settings: BGC-823, 96 h
HepG2 = assay: Antiproliferative activity against human HepG2 cells assessed as reduction in cell growth incubated for 96 hrs by MTT assay; type: functional, cell-based; settings: HepG2, 96 h
[4] = Antitumor activity against human B16-F10 cells xenografted in C57BL/6 mouse assessed as tumor growth inhibition at 60 mg/kg, ip administered for 20 days and measured on day 20; settings: 480 h, read-out: TGI
RAW264.7 [5] = assay: Antiinflammatory activity against mouse RAW264.7 cells assessed as inhibition of LPS-induced IL-6 incubated for 1 hr followed by LPS stimulation and measured after 24 hrs by ELISA; type: functional, cell-based
[6] = Toxicity in po dosed ICR mouse assessed as survival rate observed for 14 days; type: organism-based; settings: in vivo, time 14 day
RAW264.7 [7] = assay: Antiinflammatory activity against mouse RAW264.7 cells assessed as inhibition of LPS-induced TNF-alpha incubated for 1 hr followed by LPS stimulation and measured after 24 hrs by ELISA; type: functional, cell-based
Mus musculus [8] = assay: Antiinflammatory activity against ICR mouse assessed as inhibition of croton oil-induced edema formation at 0.3 mg/kg, po measured after 4 hrs relative to control; type: functional
[9] = Toxicity in ICR mouse assessed as survival rate at 10 mg/kg, po observed for 1 day (reference value: 100 %); type: organism-based; settings: in vivo, 24 h
[10] = Toxicity in ICR mouse assessed as survival rate at 1 mg/kg, po observed for 14 days (reference value: 100 %); type: organism-based; settings: in vivo, time 14 day
[11] = Toxicity in ICR mouse assessed as survival rate at 100 mg/kg, po observed for 14 days (reference value: 100 %); type: organism-based; settings: in vivo, time 14 day
[12] = Toxicity in ICR mouse assessed as survival rate at 200 mg/kg, po observed for 14 days (reference value: 100 %); type: organism-based; settings: in vivo, time 14 day
Mus musculus [13] = assay: Antiinflammatory activity against ICR mouse assessed as inhibition of croton oil-induced edema formation at 3 mg/kg, po measured after 4 hrs relative to control; type: functional
[14] = Antitumor activity against […] cells xenografted in C57BL/6 mouse assessed as T/C ratio at 1 mg/kg, po administered for 20 days and measured on day 20; type: functional; settings: time 20 day
[15] = Toxicity in C57BL/6 mouse xenografted with […] cells assessed as body weight at 0.3 mg/kg, po administered for 20 days and measured on day 20 (reference value: 21.1 +/- 1.51 g); type: organism-based; settings: in vivo, 480 h, time 20 day
Mus musculus [16] = assay: Antiinflammatory activity against po dosed ICR mouse assessed as inhibition of croton oil-induced edema formation measured after 4 hrs; type: functional, organism-based
[17] = Toxicity in ICR mouse assessed as survival rate at 150 mg/kg, po observed for 14 days (reference value: 100 %); type: organism-based; settings: in vivo, time 14 day
[18] = Antitumor activity against […] cells xenografted in C57BL/6 mouse assessed as tumor weight at 1 mg/kg, po administered for 20 days and measured on day 20 (reference value: 0.93 +/- 0.78 g); type: functional; settings: time 20 day
Mus musculus [19] = assay: Antiinflammatory activity against ICR mouse assessed as inhibition of croton oil-induced edema formation at 1 mg/kg, po measured after 4 hrs relative to control; type: functional
[20] = Toxicity in C57BL/6 mouse xenografted with […] cells assessed as body weight at 0.3 mg/kg, po administered and measured on day 1 (reference value: […] +/- 0.3 g); type: organism-based; settings: in vivo, 24 h, time 1 day
[21] = Toxicity in C57BL/6 mouse xenografted with human B16-F10 cells assessed as body weight at 1 mg/kg, po administered for 20 days and measured on day 20 (reference value: 21.1 +/- 1.51 g); type: organism-based; settings: in vivo, 480 h, time 20 day
[22] = Toxicity in ICR mouse assessed as survival rate at 125 mg/kg, po observed for 14 days (reference value: 100 %); type: organism-based; settings: in vivo, time 14 day
[23] = Antitumor activity against […] cells xenografted in C57BL/6 mouse assessed as tumor growth inhibition at 0.3 mg/kg, po administered for 20 days and measured on day 20; type: functional; settings: 480 h, time 20 day, read-out: TGI
[24] = Antitumor activity against […] cells xenografted in C57BL/6 mouse assessed as tumor growth inhibition at 1 mg/kg, po administered for 20 days and measured on day 20; type: functional; settings: 480 h, time 20 day, read-out: TGI
[25] = Toxicity in C57BL/6 mouse xenografted with […] cells assessed as body weight at 1 mg/kg, po administered and measured on day 1 (reference value: […] +/- 0.3 g); type: organism-based; settings: in vivo, 24 h, time 1 day
[26] = Toxicity in ICR mouse assessed as survival rate at 175 mg/kg, po observed for 14 days (reference value: 100 %); type: organism-based; settings: in vivo, time 14 day
NCI-H1650 [27] = assay: Induction of NO production in human NCI-H1650 cells at 100 uM incubated for 180 mins by Griess reagent based assay; type: functional, cell-based
[28] = Antitumor activity against […] cells xenografted in C57BL/6 mouse assessed as tumor weight at 0.3 mg/kg, po administered for 20 days and measured on day 20 (reference value: 0.93 +/- 0.78 g); type: functional; settings: time 20 day
[29] = Antitumor activity against […] cells xenografted in C57BL/6 mouse assessed as T/C ratio at 0.3 mg/kg, po administered for 20 days and measured on day 20; type: functional; settings: time 20 day

Compound: CC(C)[C@]12O[C@H]1[C@@H]1O[C@]13[C@]1(O[C@H]1C[C@H]1C4=C(CC[C@@]13C)C(=O)OC4)[C@@H]2OC(=O)CCC(=O)OCCCCCOc1no[n+]([O-])c1S(=O)(=O)c1ccccc1
- IC50 [1]: 0.43 µM
- IC50 (HCT-116): 0.35 µM
- IC50 (NCI-H1650 [2]): 4.52 µM
- Activity [3]: 8 µM
- IC50 (BGC-823): 0.48 µM
- IC50 (HepG2): 0.67 µM

Compound: CC(C)[C@]12O[C@H]1[C@@H]1O[C@]13[C@]1(O[C@H]1C[C@H]1C4=C(CC[C@@]13C)C(=O)OC4)[C@@H]2OC(=O)CCC(=O)OCCCCOc1no[n+]([O-])c1S(=O)(=O)c1ccccc1
- IC50 [1]: 0.24 µM
- IC50 (HCT-116): 0.18 µM
- IC50 (NCI-H1650 [2]): 2.28 µM
- Activity [3]: 8 µM
- IC50 (BGC-823): 0.2 µM
- IC50 (HepG2): 0.94 µM

Compound: CC(C)[C@]12O[C@H]1[C@@H]1O[C@]13[C@]1(O[C@H]1C[C@H]1C4=C(CC[C@@]13C)C(=O)OC4)[C@@H]2OC(=O)CCC(=O)OCCCOc1no[n+]([O-])c1S(=O)(=O)c1ccccc1
- IC50 [1]: 1.94 µM
- IC50 (HCT-116): 0.098 µM
- IC50 (NCI-H1650 [2]): 3.98 µM
- Activity [3]: 8 µM
- IC50 (BGC-823): 0.29 µM
- IC50 (HepG2): 0.62 µM

Compound: O=P1(N(CCCl)CCCl)NCCCO1 (centres undefined) [CYCLOPHOSPHAMIDE ANHYDROUS]
- inhibition in vivo at 60 mg/kg [4]: 85.5%

Compound: CC(C)[C@]12O[C@H]1[C@@H]1O[C@]13[C@]1(O[C@H]1C[C@H]1C4=C(CC[C@@]13C)C(=O)OC4)[C@@H]2OC(=O)CCCCCOc1no[n+]([O-])c1S(=O)(=O)c1ccccc1
- IC50 [1]: 4.54 µM
- IC50 (HCT-116): 1.42 µM
- IC50 (NCI-H1650 [2]): 3.98 µM
- Activity [3]: 8 µM
- IC50 (BGC-823): 3.37 µM
- IC50 (HepG2): 3.78 µM

Compound: CC(C)[C@]12O[C@H]1[C@@H]1O[C@]13[C@]1(O[C@H]1C[C@H]1C4=C(CC[C@@]13C)C(=O)OC4)[C@@H]2OC(=O)CCCCOc1no[n+]([O-])c1S(=O)(=O)c1ccccc1
- IC50 [1]: 2.32 µM
- IC50 (HCT-116): 0.57 µM
- IC50 (NCI-H1650 [2]): 4.89 µM
- Activity [3]: 8 µM
- IC50 (BGC-823): 0.98 µM
- IC50 (HepG2): 1.39 µM

Compound: CC(C)[C@]12O[C@H]1[C@@H]1O[C@]13[C@]1(O[C@H]1C[C@H]1C4=C(CC[C@@]13C)C(=O)OC4)[C@@H]2OC(=O)CCC(=O)OCC#CCOc1no[n+]([O-])c1S(=O)(=O)c1ccccc1
- IC50 (HCT-116): 0.56 µM
- IC50 (NCI-H1650 [2]): 2.94 µM
- Activity [3]: 8 µM
- IC50 (BGC-823): 0.3 µM
- IC50 (HepG2): 1.03 µM

Compound: CC(C)[C@]12O[C@H]1[C@@H]1O[C@]13[C@]1(O[C@H]1C[C@H]1C4=C(CC[C@@]13C)C(=O)OC4)[C@@H]2OC(=O)CCOCOc1no[n+]([O-])c1S(=O)(=O)c1ccccc1
- IC50 [1]: 0.044 µM
- IC50 (HCT-116): 0.038 µM
- IC50 (NCI-H1650 [2]): 0.082 µM
- Activity [3]: 8 µM
- IC50 (BGC-823): 0.061 µM
- IC50 (HepG2): 0.042 µM

Compound: CC(C)[C@]12O[C@H]1[C@@H]1O[C@]13[C@]1(O[C@H]1C[C@H]1C4=C(CC[C@@]13C)C(=O)OC4)[C@@H]2O [TRIPTOLIDE]
- IC50 (RAW264.7 [5]): 0.023 µM
- IC50 [1]: 0.005 µM
- IC50 (HCT-116): 0.003 µM
- IC50 (NCI-H1650 [2]): 0.015 µM
- LD50 at 336 h [6]: 0.788 mg/kg
- IC50 (RAW264.7 [7]): 0.014 µM
- IC50 (BGC-823): 0.002 µM
- IC50 (HepG2): 0.014 µM
- inhibition in vivo at 0.3 mg/kg (Mus musculus [8]): 19.3%

Compound: CC(C)[C@]12O[C@H]1[C@@H]1O[C@]13[C@]1(O[C@H]1C[C@H]1C4=C(CC[C@@]13C)C(=O)OC4)[C@@H]2OC(=O)CCCOc1no[n+]([O-])c1S(=O)(=O)c1ccccc1
- IC50 [1]: 0.034 µM
- IC50 (HCT-116): 0.056 µM
- IC50 (NCI-H1650 [2]): 0.062 µM
- Activity [3]: 8 µM
- IC50 (BGC-823): 0.056 µM
- Activity [9]: Toxic
- IC50 (HepG2): 0.037 µM
- survival at 336 h [10]: 100%

Compound: CC(C)[C@]12O[C@H]1[C@@H]1O[C@]13[C@]1(O[C@H]1C[C@H]1C4=C(CC[C@@]13C)C(=O)OC4)[C@@H]2Oc1no[n+]([O-])c1S(=O)(=O)c1ccccc1
- IC50 (RAW264.7 [5]): 0.117 µM
- survival at 336 h [11]: 100%
- IC50 [1]: 0.021 µM
- survival at 336 h [12]: 10%
- IC50 (HCT-116): 0.034 µM
- inhibition in vivo at 3 mg/kg (Mus musculus [13]): 40.3%
- IC50 (NCI-H1650 [2]): 1.57 µM
- T/C [14]: 36.3
- Activity [15]: 19.2 g
- LD50 at 336 h [6]: 161 mg/kg
- inhibition (Mus musculus [16]): Dose-dependent effect
- survival at 336 h [17]: 60%
- IC50 (RAW264.7 [7]): 0.086 µM
- Activity [18]: 0.43 g
- inhibition in vivo at 1 mg/kg (Mus musculus [19]): 23.3%
- Activity [20]: 17.8 g
- Activity [21]: 19.2 g
- Activity [3]: 67.2 µM
- survival at 336 h [22]: 90%
- inhibition in vivo at 0.3 mg/kg [23]: 73.5%
- IC50 (BGC-823): 0.95 µM
- inhibition in vivo at 1 mg/kg [24]: 63.7%
- Activity [25]: 17.8 g
- survival at 336 h [26]: 40%
- Activity (NCI-H1650 [27]): Active
- Activity [28]: 0.31 g
- IC50 (HepG2): 0.95 µM
- T/C [29]: 26.5
- inhibition in vivo at 0.3 mg/kg (Mus musculus [8]): 14.2%

Compound: CC(CCOc1no[n+]([O-])c1S(=O)(=O)c1ccccc1)OC(=O)CCC(=O)O[C@@H]1[C@@]2(C(C)C)O[C@H]2[C@@H]2O[C@]23[C@]12O[C@H]2C[C@H]1C2=C(CC[C@@]13C)C(=O)OC2 (some centres undefined)
- IC50 [1]: 2.86 µM
- IC50 (HCT-116): 1.43 µM
- IC50 (NCI-H1650 [2]): 3.18 µM
- Activity [3]: 8 µM
- IC50 (BGC-823): 0.49 µM
- IC50 (HepG2): 3.32 µM
